# Measured values: patent EP4725508A1, “LIGAND-DRUG CONJUGATE HAVING FREE PAYLOAD RECOVERY UNIT” (RemeGen Co., Ltd., priority 2024, dated 2025)
# Entries after “also recorded” stand apart in the source; their conditions may differ. Ends that are not written are not given here.
# System: BSA-MMAF
# Experiment: Peptide competitive ELISA (PP-1B-#74)
# Assay type: binding
# Conditions: FIG. 43
# Description: Based on the peptide molecule binding activity results, molecule PP-1B-#74 was further verified for its specific binding to MMAE through competitive experiments.
# • (1) Antigen coating: BSA-MMAF was coated onto a microplate using coating buffer at a concentration of 1 µg/mL, and the plate was placed at 4°C overnight for about 16 h. (2) Blocking: The microplate coated with antigen was washed once with PBST using a plate washer, and blocked by adding Casein solution at 200 µL/well at room temperature for 1 h. (3) Primary antibody incubation: The plate was washed 3 times with PBST, and a premixture of peptide sample diluted with Casein solution and truncated free MMAE/null-ADC was added. The final concentration of the peptide sample was 2000 nM. The initial concentration of truncated free MMAE and null-ADC was 1000 nM, diluted in a 10-fold gradient, and incubation was performed at room temperature for 2 h. (4) Secondary antibody incubation: The plate was washed 3 times with PBST, and secondary antibody Goat pAb to Hu IgG(HRP) (1:10000) diluted with Casein solution was added and the plate was incubated at room temperature for 1 h. […] Termination: 100 µL of 2 M H2SO4 was added to each well to terminate the reaction, and the OD450 value was read using a microplate reader, recorded, and saved. (6) Finally, the data were analyzed using GraphPad software.
row,Substance,specific binding to MMAE (competitive ELISA)
1,YYVAWRW [PP-1B-#74],able to specifically bind to MMAE

# Target: Nectin-4 (UniProt Q96NY8)
# Sequence (Q96NY8 32-349 limits assumed): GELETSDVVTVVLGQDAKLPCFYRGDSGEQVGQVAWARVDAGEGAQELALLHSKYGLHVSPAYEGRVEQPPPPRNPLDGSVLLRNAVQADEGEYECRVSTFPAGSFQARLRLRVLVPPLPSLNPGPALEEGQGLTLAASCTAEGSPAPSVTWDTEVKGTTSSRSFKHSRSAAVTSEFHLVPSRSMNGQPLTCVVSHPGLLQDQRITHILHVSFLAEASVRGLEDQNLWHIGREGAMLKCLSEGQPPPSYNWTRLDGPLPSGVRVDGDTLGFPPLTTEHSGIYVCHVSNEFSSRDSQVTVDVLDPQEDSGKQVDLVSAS
# Experiment: binding assay read as OD450; method not described
# Conditions: not given
row,Substance,Top OD450 [OD450]
1,Enfortumab vedotin (in-house) (antibody),1.23
2,hIgG1 (antibody),0

# System: BSA-MMAF
# Experiment: Peptide competitive ELISA
# Assay type: binding
# Conditions: peptide 2000 nM, truncated free MMAE or null-ADC from 1000 nM (FIG. 35)
# Description: • (1) Antigen coating: BSA-MMAF was coated onto a microplate using coating buffer at a concentration of […], and placed at 4°C overnight for about 16 h. (2) Blocking: The microplate coated with antigen was washed once with PBST using a plate washer, and blocked by adding Casein solution at 200 µL/well at room temperature for 1 h. (3) Primary antibody incubation: The plate was washed 3 times with PBST, and a premixture of peptide sample diluted with Casein solution and truncated free MMAE/null-ADC was added. The final concentration of the peptide sample was 2000 nM. […] The positive control was molecule ABC3320 with a final concentration of 1.28 nM. Incubation was performed at room temperature for 2 h. (4) Secondary antibody incubation: The plate was washed 3 times with PBST, and secondary antibody Goat pAb to Hu IgG(HRP) (1:10000) diluted with Casein solution was added and incubated at room temperature for 1 h. (5) Color development: The plate was washed 6 times with PBST, 100 µL of TMB color development solution was added to each well, and color was developed for 2 to 10 min protected from light. (6) Termination: 100 µL of 2 M H2SO4 was added to each well to terminate the reaction. The OD450 value was read using a microplate reader, recorded, and saved. Finally, the data were analyzed using GraphPad software.
row,Substance,competitive binding of free MMAE
1,ACDESHGVPHTSGMC [PP-1A-#85],"blocked by truncated free MMAE, but not blocked by null-ADC"
2,ACVLSPHPQAC [PP-1A-#93],"blocked by truncated free MMAE, but not blocked by null-ADC"

# System: NCI-H292 tumor cells
# Experiment: Inhibitory effect of DXD-binding peptides on DXD cytotoxicity
# Assay type: cell-based
# Conditions: DXD 1 ng/mL, peptides from 100 µg/mL, 3 days (FIG. 41)
# Description: NCI-H292 tumor cells were used to detect the inhibitory effect of DXD-binding peptides on DXD cytotoxicity.
# NCI-H292 cells were digested, counted, and plated at 5E3 cells/well, with 60 µL per well, and allowed to adhere in a 37°C incubator. Peptide molecules and nonsense control antibody Null IgG were 2-fold diluted for 7 gradients starting at a concentration of 100 µg/mL The DXD concentration was fixed to 1 ng/mL. The test substances were incubated with DXD at room temperature for 2 h. The incubated samples were added into the 96-well plate at 60 µL/well and cultured in a 37°C incubator for 3 days. 100 µL of Cell Counting-Lite 2.0 Reagent was added to each well, and the plate was shaken on a shaker for 10 min. The fluorescence signal was read using a microplate reader.
row,Substance,cytoprotective effect
1,ACGSLSWRNCGSYRC [PP-1A-#417],exhibited a cytoprotective effect
2,ACLACWTSRSC [PP-1A-#414],exhibited a cytoprotective effect; also recorded: had the best activity
3,ACLSPWLFFWC [PP-1A-#415],exhibited a cytoprotective effect
4,ILTTVNVVPNTIHVR [PP-1A-#340],exhibited a cytoprotective effect

# System: OVA-MMAF and BSA-MMAF
# Experiment: Peptide ELISA binding experiment (PP-1B Fc fusion peptides)
# Conditions: FIG. 42
# Description: The binding of the constructed Fc fusion peptide molecules PP-1B-#70 to #74 with OVA-MMAF and OVA was identified respectively to screen for molecules with better specific binding specificity to MMAE. After the first round of primary screening was completed, the binding specificity of #74 with OVA-MMAF and BSA-MMAF was further verified.
# • (1) Antigen coating: MMAF conjugated protein and negative protein were coated onto a microplate using coating buffer at a concentration of 1 µg/mL, and the plate was placed at 4°C overnight for about 16 h. (2) Blocking: The microplate coated with antigen was washed once with PBST using a plate washer, and blocked by adding Casein solution at 200 µL/well at room temperature for 1 h. (3) Primary antibody incubation: The plate was washed 3 times with PBST, and peptide samples with an initial concentration of 2000 nM diluted in a 5-fold gradient using Casein solution were added and the plate incubated at room temperature for 2 h. (4) Secondary antibody incubation: The plate was washed 3 times with PBST, and secondary antibody Goat pAb to Hu IgG(HRP) (1:10000) (Abcam, Cat. Ab97225) diluted with Casein solution was added and the plate was incubated at room temperature for 1 h. […] The OD450 value was read using a microplate reader, recorded, and saved. Finally, the data were analyzed using GraphPad software.
row,Substance,specific binding to OVA-MMAF and BSA-MMAF
1,YYVAWRW [PP-1B-#74],able to specifically bind to OVA-MMAF and BSA-MMAF

# System: OVA-DXD
# Experiment: Dot blot screening for DXD specific binding peptides
# Conditions: OVA or OVA-DXD 20 µg/mL spotted (FIG. 40)
# Description: Sample preparation: 50 mL of bacterial liquid induced with IPTG overnight (16°C, 16 h) was collected by centrifugation at 5000 rpm for 5 min, and the supernatant was discarded. 7 mL of PBS was added to resuspend the bacterial pellet, and it was disrupted at 200 W for 5 min. It was centrifuged at 12,000 rpm for 20 min, and the supernatant was collected for later use. Spotting: A nylon membrane (Beyotime, CAT#FFN10) was cut to an appropriate size and marked with lines. 3 µL of antigen sample (OVA or OVA-DXD, 20 µg/mL) was spotted onto the membrane using a pipette. The consistency of the spotted volume and the spacing between spots were carefully dealt with to avoid mutual interference between samples. After spotting, the membrane was allowed to dry naturally at room temperature. Blocking: The dried membrane was placed in a blocking solution (5% skim milk) and blocked on a shaker at room temperature for 1 to 2 h. The purpose of blocking was to prevent non-specific binding and reduce background signals. Washing: After incubation of the primary antibody, the membrane was thoroughly washed with washing buffer (PBST) 3 times for 5 min each time to remove unbound primary antibody. Secondary antibody incubation: The membrane was placed in a solution containing appropriately diluted secondary antibody and incubated at room temperature for 1 to 2 h. The secondary antibody was an antibody against the primary antibody, usually carrying a detectable label such as horseradish peroxidase (HRP) or alkaline phosphatase (AP). Washing: The membrane was washed again with washing buffer to remove unbound secondary antibody, 3 times for 5 min each time. Color development: An appropriate amount of ECL color development substrate solution was applied to the membrane, and the reaction was performed at room temperature protected from light. The color development was observed using a gel imager, and the membrane was photographed and recorded. Through observing the presence or absence and the color depth of the spots, the target protein in the sample can be qualitatively or semi-quantitatively analyzed.
row,Substance,specific binding to DXD (dot blot)
1,ACGSLSWRNCGSYRC [PP-1A-#417],capable of specifically binding to DXD
2,ACLACWTSRSC [PP-1A-#414],capable of specifically binding to DXD
3,ACLSPWLFFWC [PP-1A-#415],capable of specifically binding to DXD
4,ACSQCVLLPPPQSVC [PP-1A-#431],capable of specifically binding to DXD
5,ACWTLWLPLLPLGSC [PP-1A-#428],capable of specifically binding to DXD
6,ACYPFGNPRGVRPSC [PP-1A-#426],capable of specifically binding to DXD
7,AHNVEILPPFDYTLS [PP-1A-#358],capable of specifically binding to DXD
8,APPTFPVSTSVVISR [PP-1A-#367],capable of specifically binding to DXD
9,ILTTVNVVPNTIHVR [PP-1A-#340],capable of specifically binding to DXD
10,LTVAMITTSRITTSN [PP-1A-#362],capable of specifically binding to DXD
11,VALTWYYPIYLFATR [PP-1A-#330],capable of specifically binding to DXD

# System: OVA-MMAF
# Experiment: Peptide ELISA binding experiment (Fc fusion peptides)
# Conditions: antigens coated 1 µg/mL, peptide from 2000 nM (FIG. 34)
# Description: The constructed Fc fusion peptide molecules PP-1A-#84 to #95 were used for identification of binding specificity to OVA-MMAF and OVA, to determine molecules with better specific binding activity to MMAE. […] Table 20. Amino acid sequence listing of PP-1A-#85 (peptide) to PP-1A-#94 (peptide) and PP-1A-#85 (Fc fusion peptide)
# • (1) Antigen coating: MMAF conjugated protein and negative protein were coated onto a microplate using coating buffer at a concentration of 1 µg/mL, and the plate was placed at 4°C overnight for about 16 h. (2) Blocking: The plate coated with antigen was washed once with PBST using a plate washer, and blocked by adding Casein solution at 200 µL/well at room temperature for 1 h. (3) Primary antibody incubation: The plate was washed 3 times with PBST, and peptide samples with an initial concentration of 2000 nM diluted in a 5-fold gradient using Casein solution were added. The negative control was the Fc.uIgG1 molecule. Incubation was performed at room temperature for 2 h. (4) Secondary antibody incubation: The plate was washed 3 times with PBST, and secondary antibody Goat pAb to Hu IgG(HRP) (1:10000) (Abcam, Cat. Ab97225) diluted with Casein solution was added and incubated at room temperature for 1 h. (5) Color development: The plate was washed 6 times with PBST, 100 µL of TMB color development solution was added to each well, and color was developed for 2 to 10 min protected from light. (6) Termination: 100 µL of 2 M H2SO4 was added to each well to terminate the reaction. The OD450 value was read using a microplate reader, recorded, and saved. Finally, the data were analyzed using GraphPad software.
row,Substance,specific binding to OVA-MMAF and OVA
1,ACDESHGVPHTSGMC [PP-1A-#85],good binding activity to OVA-MMAF and did not bind to OVA
2,ACHWNAKADYGSFVC (cysteine pairing not given here; also: Fc fusion) [PP-1A-#91],"specific binding to OVA-MMAF, but the binding activity was relatively weak"
3,ACLPNSLGPSAMSSC [PP-1A-#86],good binding activity to OVA-MMAF and did not bind to OVA
4,ACLRNSPRKQC (cysteine pairing not given here; also: Fc fusion) [PP-1A-#90],"specific binding to OVA-MMAF, but the binding activity was relatively weak"
5,ACRLTGPDWLHTQRC (cysteine pairing not given here; also: Fc fusion) [PP-1A-#88],"specific binding to OVA-MMAF, but the binding activity was relatively weak"
6,ACTGCSRTHSPRSRC (cysteine pairing not given here; also: Fc fusion) [PP-1A-#92],"specific binding to OVA-MMAF, but the binding activity was relatively weak"
7,ACTPALRSLAC (cysteine pairing not given here; also: Fc fusion) [PP-1A-#89],good binding activity to OVA-MMAF and did not bind to OVA
8,ACVLSPHPQAC [PP-1A-#93],good binding activity to OVA-MMAF and did not bind to OVA
